Experimental data from patent US9504725B2, “Compositions and functional foods for treating and preventing obesity using polygonum cuspidatum butanol fraction and ethyl acetate fraction” (KOREA INSTITUTE OF ORIENTAL MEDICINE, priority 2009, dated 2016).
One block for each compound: values may come before it.

How the values were obtained:
[1] = Inhibitory effect on short term absorption of lipid emulsions in animals (triglyceride after oral lipid emulsion); assay type: in vivo, male wistar rats
[2] = target: T1, porcine pancreatic lipase (Sus scrofa, UniProt P00591); experiment: Inhibition of porcine pancreatic lipase activity (p-NPB hydrolysis); assay type: biochemical
T1 construct: purchased Sigma, St. Louis, Mo., USA
T1 sequence (P00591 1-450): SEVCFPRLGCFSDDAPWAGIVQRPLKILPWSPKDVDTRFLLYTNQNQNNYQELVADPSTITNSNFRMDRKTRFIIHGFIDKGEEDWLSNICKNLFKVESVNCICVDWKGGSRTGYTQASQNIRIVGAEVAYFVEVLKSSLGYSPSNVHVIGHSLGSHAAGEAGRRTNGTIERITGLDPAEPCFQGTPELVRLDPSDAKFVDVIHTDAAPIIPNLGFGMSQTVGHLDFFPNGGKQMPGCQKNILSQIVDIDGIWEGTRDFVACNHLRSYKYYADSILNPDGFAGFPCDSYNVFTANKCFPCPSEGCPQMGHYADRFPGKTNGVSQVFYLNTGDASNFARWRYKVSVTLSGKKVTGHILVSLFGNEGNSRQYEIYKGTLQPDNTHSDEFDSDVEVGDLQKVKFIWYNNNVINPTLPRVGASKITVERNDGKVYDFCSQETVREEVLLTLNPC

[3] = Obesity-preventive effect in high-fat diet-fed mice (body weight, fats, adipocyte size, serum lipids, fatty liver, insulin); assay type: in vivo, male C57BL/6 mice
[4] = high-fat feed mixed with drug (POCU 1%, Xenical 0.1%), 10 weeks

- inhibition at 50 µg/mL ([2]; 50 μg/mL, read-out: Inhibitory effect on pancreatic lipase activity (%)): 32.4 ± 3%
- inhibition at 100 µg/mL ([2]; 100 μg/mL, read-out: Inhibitory effect on pancreatic lipase activity (%)): 47.2 ± 1.6%
- IC50 ([2]; porcine pancreatic lipase, p-NPB substrate): 543 µM
Compound: Oc1ccc(/C=C/c2cc(O)cc(O)c2)cc1 [Resveratrol, trans-resveratrol]
- Concentration of serum triglyceride ([1]; 10 mg/kg oral with lipid emulsion, 0 h (before administration)): 147.0 ± 4.2 mg/dL
- Concentration of serum triglyceride ([1]; 10 mg/kg oral with lipid emulsion, 1 h): 212.5 ± 14.0 mg/dL
- Concentration of serum triglyceride ([1]; 10 mg/kg oral with lipid emulsion, 2 h): 219.3 ± 77.3 mg/dL
- Concentration of serum triglyceride ([1]; 10 mg/kg oral with lipid emulsion, 3 h): 195.5 ± 25.9 mg/dL
- Concentration of serum triglyceride ([1]; 10 mg/kg oral with lipid emulsion, 4 h): 193.2 ± 12.1 mg/dL
- Concentration of serum triglyceride ([1]; 50 mg/kg oral with lipid emulsion, 0 h (before administration)): 146.1 ± 1.4 mg/dL
- Concentration of serum triglyceride ([1]; 50 mg/kg oral with lipid emulsion, 1 h): 208.3 ± 31.0 mg/dL
- Concentration of serum triglyceride ([1]; 50 mg/kg oral with lipid emulsion, 2 h): 228.0 ± 58.4 mg/dL
- Concentration of serum triglyceride ([1]; 50 mg/kg oral with lipid emulsion, 3 h): 198.8 ± 62.3 mg/dL
- Concentration of serum triglyceride ([1]; 50 mg/kg oral with lipid emulsion, 4 h): 183.7 ± 50.3 mg/dL
- Concentration of serum triglyceride ([1]; 250 mg/kg oral with lipid emulsion, 2 h): 228.5 ± 8.4 mg/dL

Compound: CCCCCCCCCCC[C@@H](C[C@@H]1OC(=O)[C@H]1CCCCCC)OC(=O)[C@H](CC(C)C)NC=O [Xenical, tetrahydrolipstatin (orlistat)]
- Concentration of serum triglyceride ([1]; 200 mg/kg oral with lipid emulsion, 0 h (before administration)): 159.6 ± 19.0 mg/dL
- Concentration of serum triglyceride ([1]; 200 mg/kg oral with lipid emulsion, 1 h): 133.7 ± 11.3 mg/dL
- Concentration of serum triglyceride ([1]; 200 mg/kg oral with lipid emulsion, 2 h): 124.4 ± 18.0 mg/dL
- Concentration of serum triglyceride ([1]; 200 mg/kg oral with lipid emulsion, 3 h): 118.1 ± 24.5 mg/dL
- Concentration of serum triglyceride ([1]; 200 mg/kg oral with lipid emulsion, 4 h): 120.9 ± 12.5 mg/dL
- adipocyte size ([3]; H&E stained adipose tissue, high-fat diet group 125 μm): 75 μm
- gonadal fat weight [3, 4]: 0.17 g
- perirenal fat weight [3, 4]: 0.04 g
- subcutaneous fat weight [3, 4]: 0.14 g
- extent of body weight gain ([3]; high-fat feed mixed with drug, 10 weeks, high-fat diet group 10.9 g): 6.1 g
